Consider one compound from US12643871B2, “Aryl formamide compound containing chiral sulfur oxide or salt thereof, preparation method, herbicidal composition and use thereof” (Qingdao Kingagroot Chemical Compound Co., Ltd., priority 2019, dated 2026).

Data set [1] has as its system Abutilon theophrasti. Nature of the data set: Weeding effect in post-emergence stage. The class given is in vivo. The settings on record: 250 g/ha; 2 leaf stage; 15 days after application; fresh weight control rate. Summed up: (§1)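 Pot-grown weeds sprayed post-emergence at the 2-leaf stage, 2 weeks after sowing, with compound in acetone/Tween 80 plus 1.5 L/ha methyl oleate concentrate at 500–15 g/ha. Fresh-weight growth control scored after 15 days in greenhouse, mean of three replicates, graded levels 0–5 (5: >85%, 0: <5%).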

For a further data set, the system named is Amaranthus retroflexus. Nature of the data set: Weeding effect in post-emergence stage. The class given is in vivo. Conditions: 250 g/ha; 2 leaf stage; 15 days after application; fresh weight control rate. The method, boiled down: as §1
In data set [2] the test system is Digitaria sanguinalis. Nature of the data set: Weeding effect in post-emergence stage. The class given is in vivo. The settings on record: 250 g/ha; 2 leaf stage; 15 days after application; fresh weight control rate. Summed up:
as §1

The test system of data set [3] is Echinochloa crusgali. The data set can be described thus: Weeding effect in post-emergence stage. Conditions: 250 g/ha; 2 leaf stage; 15 days after application; fresh weight control rate. The class given is in vivo. The method, boiled down: as §1
The test system of a further data set is Setaria viridis. Nature of the data set: Weeding effect in post-emergence stage. The class given is in vivo. The settings on record: 250 g/ha; 2 leaf stage; 15 days after application; fresh weight control rate. The method, boiled down:
as §1

In data set [4] the test system is Abutilon theophrasti. Nature of the data set: Comparison experiment (post-emergence) against racemate / S configuration. The class given is in vivo. Conditions: 30 g/ha; 3-4 weeks after sowing, 4-5 leaf-stage of weed, 25DAA. From the text: (§2) The above growth control rates are fresh weight control rates.
(§3) Experiment on weeding effect in post-emergence stage: monocotyledonous and dicotyledonous weed seeds (Descurainia sophia, Capsella bursa-pastoris, Galium aparine, Stellaria media, Lithospermum arvense, Rorippa indica, Alopecurus aequalis, Beckmannia syzigachne, Sclerochloa dura, Phleum paniculatum, Bromus japonicus, Aegilops tauschii, Phalaris arundinacea, Amaranthus retroflexus, Chenopodiaceae, Commelina communis, Sonchus arvensis, convolvulus arvensis, Cirsium setosum, Solanum nigrum, Acalypha australis, Digitaria sanguinalis, Echinochloa crusgalli, Setaria viridis, Setaria glauca, Leptochloa chinensis, Monochoria vaginalis, Sagittaria trifolia, Scirpus juncoides, Cyperus rotundus, Cyperus iria, Cyperus difformis, Fimbristylis, Portulaca oleracea, Xanthium sibiricum, Pharbitis nil) and major crop seeds (wheat, corn, rice, soybean, cotton, oilseed rape, millet, sorghum, potato, sesame, ricinus) were placed in plastic pots filled with soil, then covered with 0.5-2 cm of soil, allowed to grow in a good greenhouse environment. […] The tested compounds of the present invention were respectively dissolved in acetone, then added with Tween 80 and 1.5 liter/ha of emulsifiable concentrate of methyl oleate as synergist, diluted with a certain amount of water to obtain a solution with a certain concentration, and sprayed with a spray tower onto the plants. […]
(§4) If there is no clear marker, the post-seedling test conditions are the same as above, and the experimental results are shown in Tables 4-7.

Another data set relates to Green Setaria viridis. Described as above. The settings on record: 3-4 weeks after sowing, 4-5 leaf-stage of weed. The class given is in vivo.
Excerpt: as §2, §3, §4

Data set [5] concerns Leptochloa chinensis. The description is as above. The class given is in vivo.
Excerpt: as §2, §3, §4

A further data set relates to Rice(Longyang 16). Nature of the data set: Comparison experiment (post-emergence), crop safety on direct seeding rice. The class given is in vivo.
Excerpt: as §2
Experiment on weeding effect in post-emergence stage: monocotyledonous and dicotyledonous weed seeds (Descurainia sophia, Capsella bursa-pastoris, Galium aparine, Stellaria media, Lithospermum arvense, Rorippa indica, Alopecurus aequalis, Beckmannia syzigachne, Sclerochloa dura, Phleum paniculatum, Bromus japonicus, Aegilops tauschii, Phalaris arundinacea, Amaranthus retroflexus, Chenopodiaceae, Commelina communis, Sonchus arvensis, convolvulus arvensis, Cirsium setosum, Solanum nigrum, Acalypha australis, Digitaria sanguinalis, Echinochloa crusgalli, Setaria viridis, Setaria glauca, Leptochloa chinensis, Monochoria vaginalis, Sagittaria trifolia, Scirpus juncoides, Cyperus rotundus, Cyperus iria, Cyperus difformis, Fimbristylis, Portulaca oleracea, Xanthium sibiricum, Pharbitis nil) and major crop seeds (wheat, corn, rice, soybean, cotton, oilseed rape, millet, sorghum, potato, sesame, ricinus) were placed in plastic pots filled with soil, then covered with 0.5-2 cm of soil, allowed to grow in a good greenhouse environment. After 2 weeks of sowing, the test plants were treated in the 2 leaf stage. The tested compounds of the present invention were respectively dissolved in acetone, then added with Tween 80 and 1.5 liter/ha of emulsifiable concentrate of methyl oleate as synergist, diluted with a certain amount of water to obtain a solution with a certain concentration, and sprayed with a spray tower onto the plants. After the application, the plants were cultured for 15 days in the greenhouse, and then the experimental results of the weeding were counted. The doses of the used compounds were 500, 250, 125, 60, 30, 15 g/ha, and the averages were obtained by repeating for three times.
as §4
Longyang 16 is an important cultivated variety representative of long-grain fragrant rice in northeast China. Long-grain fragrant rice is sensitive to herbicides and prone to drug damage, especially HPPD herbicides such as mesotrione and benzobicylon. […] It was not consistent with the well-known structure-activity relationship that aryloxyphenoxypropionic acid herbicides and phenoxypropionic acid herbicides in effective form have high activity to weeds and heavy damage to crops, and in ineffective form have almost no activity.

The subject of data set [6] is Echinochloa crusgali. The data set can be described thus: Weed control effect evaluation in rice field. The class given is in vivo. The settings on record: 60 g/ha; rice field pot, 14 days after treatment; ALS-inhibitor resistant weed from Heilongjiang. From the text: (§5) The activity level criteria for harmful plant damage (i.e., growth control rate) are as follows: • Level 5: growth control rate is above 85%; • Level 4: growth control rate is greater than or equal to 60% and less than 85%; • Level 3: growth control rate is greater than or equal to 40% and less than 60%; • Level 2: growth control rate is greater than or equal to 20% and less than 40%; • Level 1: growth control rate is greater than or equal to 5% and less than 20%; • Level 0: growth control rate is less than 5%.
(§6) Rice field soil was loaded into a 1/1,000,000 ha pot. The seeds of Echinochloa crusgali, Scirpus juncoides, Bidens tripartita, Sagittaria trifolia, Monochoria vaginalis and Leptochloa chinensis were sowed and gently covered with soil, then left to stand still in greenhouse in the state of 0.5-1 cm of water storage. The tuber of Sagittaria trifolia was planted in the next day or 2 days later. It was kept at 3-4 cm of water storage thereafter. The weeds were treated by dripping the WP or SC water diluents prepared according to the common preparation method of the compounds of the present invention with pipette homogeneously to achieve specified effective amount when Echinochloa crusgali, Scirpus juncoides, Bidens tripartita, Monochoria vaginalis and Leptochloa chinensis reached 0.5 leaf stage and Sagittaria trifolia reached the time point of primary leaf stage.
(§7) The fertility condition of Echinochloa crusgali, Scirpus juncoides, Bidens tripartita, Leptochloa chinensis, Sagittaria trifolia and Monochoria vaginalis 14 days after the treatment of the compound of the invention and the fertility condition of rice 21 days after the treatment of the compound of the invention respectively with the naked eye. Evaluate the weed control effect with 0-5 activity standard level. Many compounds show excellent activity and selectivity.

Data set [7] relates to Leptochloa chinensis. The data set can be described thus: Weed control effect evaluation in rice field. The class given is in vivo. The settings on record: 60 g/ha; rice field pot, 14 days after treatment.
Excerpt: as §5, §6, §7

A further data set has as its system Monochoria vaginalis. The data set can be described thus: Weed control effect evaluation in rice field. The class given is in vivo. The settings on record: 60 g/ha; rice field pot, 14 days after treatment; ALS-inhibitor resistant weed from Heilongjiang.
Excerpt: as §5, §6, §7

Another data set deals with Sagittaria trifolia. Nature of the data set: Weed control effect evaluation in rice field. The class given is in vivo. Conditions: 60 g/ha; rice field pot, 14 days after treatment; ALS-inhibitor resistant weed from Heilongjiang.
Excerpt: as §5, §6, §7

In a further data set the test system is Rice. Nature of the data set: Transplanted rice safety evaluation. The class given is in vivo, rice (japonica rice/Indica rice). The settings on record: 60 g/ha; transplanted 3 leaf stage rice, 21 days after treatment.
Excerpt: as §5
In addition, the rice field soil that loaded into the 1/1,000,000 ha pot was leveled to keep water storage at 3-4 cm depth. The 3 leaf stage rice (japonica rice/Indica rice) was transplanted at 3 cm of transplanting depth the next day. The compound of the present invention was treated by the same way after 5 days of transplantation.
as §7

Data set [8] has as its system Digitaria sanguinalis. The data set can be described thus: Comparison experiment (post-emergence) against racemate / S configuration. The class given is in vivo. Conditions: 30 g/ha; 3-4 weeks after sowing, 4-5 leaf-stage of weed, 25DAA.

For the compound `CCC[S@@+]([O-])c1c(C(F)(F)F)ccc(C(=O)Nc2nnc(C)o2)c1F` [Compound 3], in the data set with Abutilon theophrasti [1], the “weeding effect in post-emergence stage, activity level (growth control rate), Abutilon theophrasti” value is 5 (Level 5: growth control rate is above 85%). Besides, the “weeding effect in post-emergence stage, activity level (growth control rate), Amaranthus retroflexus” value with Amaranthus retroflexus is on record as 5 (Level 5: growth control rate is above 85%). In addition, the “weeding effect in post-emergence stage, activity level (growth control rate), Digitaria sanguinalis” value in the data set on Digitaria sanguinalis [2] is 5 (Level 5: growth control rate is above 85%). In addition, in the data set with Echinochloa crusgali [3], the “weeding effect in post-emergence stage, activity level (growth control rate), Echinochloa crusgali” value is 5 (Level 5: growth control rate is above 85%). Moreover, the “weeding effect in post-emergence stage, activity level (growth control rate), Setaria viridis” value in the data set with Setaria viridis is recorded as 5 (Level 5: growth control rate is above 85%). Besides, in the data set with Abutilon theophrasti [4], the “Results of comparison experiment, Abutilon theophrasti (30 g/ha)” value was 100%. In the data set with Green Setaria viridis (30 g/ha, 25 DAA (Table 5)), the “Results of comparison experiment, Green Setaria viridis (30 g/ha)” value is reported as 75%. The “Results of comparison experiment, Green Setaria viridis (60 g/ha)” value in the data set with Green Setaria viridis (60 g/ha, 25DAA) is listed as 100%. Also, the “Results of comparison experiment, Leptochloa chinensis (60 g/ha)” value with Leptochloa chinensis [5] (60 g/ha, 3-4 weeks after sowing, 4-5 leaf-stage of weed, 25DAA) is recorded as 85%. In addition, the “Results of comparison experiment, Leptochloa chinensis (125 g/ha)” value in the data set with Leptochloa chinensis [5] (125 g/ha, 3-4 weeks after sowing, 4-5 leaf-stage of weed, 25 DAA (Table 5)) came to 100%. Further, in the data set on Leptochloa chinensis [5] (summary of Table 5), the “activity against key weeds such as Leptochloa chinensis, in words” value is “better activity”. For the same compound, in the data set on Rice(Longyang 16) (250 g/ha, 1.5-2 leaf-stage of direct seeding rice variety Longyang 16, 25 DAA), the “Results of comparison experiment, Rice(Longyang 16) (250 g/ha)” value worked out at 0%. For the same compound, the “Results of comparison experiment, Rice(Longyang 16) (500 g/ha)” value with Rice(Longyang 16) (500 g/ha, 1.5-2 leaf-stage of direct seeding rice variety Longyang 16, 25 DAA) was 0%. For the same compound, the “safety to rice (Longyang 16), in words” value in the data set on Rice(Longyang 16) (summary of Table 5) is listed as “higher safety”. The “Herbicidal effects of compounds, Echinochloa crusgali, 0-5 activity standard level” value with Echinochloa crusgali [6] is recorded as 5 (Level 5: growth control rate is above 85%). Besides, the “Herbicidal effects of compounds, Leptochloa chinensis, 0-5 activity standard level” value in the data set with Leptochloa chinensis [7] was 5 (Level 5: growth control rate is above 85%). In addition, the “Herbicidal effects of compounds, Monochoria vaginalis, 0-5 activity standard level” value in the data set with Monochoria vaginalis is listed as 5 (Level 5: growth control rate is above 85%). In addition, in the data set on Sagittaria trifolia, the “Herbicidal effects of compounds, Sagittaria trifolia, 0-5 activity standard level” value is 5 (Level 5: growth control rate is above 85%). Further, the “Herbicidal effects of compounds, Rice, 0-5 activity standard level” value in the data set with Rice is on record as 0 (Level 0: growth control rate is less than 5%). The “Results of comparison experiment, Digitaria sanguinalis (30 g/ha)” value in the data set with Digitaria sanguinalis [8] came out at 100%.
